Assay results as given in PMC9395446, “First-in-human phase 1/1b study to evaluate sitravatinib in patients with advanced solid tumors” (Investigational New Drugs, 2022).

Test: Safety in phase 1/1b study (DLTs, TRAEs, TEAEs; CTCAE v4.03)
Type: in vivo, human
Source text: Safety assessments included evaluation of DLTs, AEs, physical examinations, vital sign measurements, electrocardiogram recordings and laboratory tests.
A DLT was defined as a grade ≥ 4 hematologic abnormality lasting ≥ 4 days; grade 3 thrombocytopenia with clinically significant bleeding; febrile neutropenia; clinically significant grade ≥ 3 non-hematologic AEs not related to underlying malignancy; intolerable grade 2 AEs; or toxicity resulting in an inability to deliver 80% of the dose during the first treatment cycle.
The safety population included all patients who received ≥ 1 dose of sitravatinib. […] The PK evaluable population included all patients with sufficient concentration-time data for PK parameter evaluation. The modified intent-to-treat (mITT) population included all phase 1b patients who received ≥ 1 dose of study drug.

## COCCNCc1ccc(-c2cc3nccc(Oc4ccc(NC(=O)C5(C(=O)Nc6ccc(F)cc6)CC5)cc4F)c3s2)nc1 [sitravatinib, Sitravatinib]
150 mg phase 1b
  Hypophosphatemia TEAE, grade ≥3: 9 (9.1) n (%)
  Hypothyroidism TEAE, any grade: 22 (22.2) n (%)
  Hypothyroidism TEAE, grade ≥3: 0 n (%)
  Hypothyroidism TRAE, any grade: 16 (16.2) n (%)
  Hypothyroidism TRAE, grade ≥3: 0 n (%)
  Infections and infestations TEAE, any grade: 40 (40.4) n (%)
  Infections and infestations TEAE, grade ≥3: 12 (12.1) n (%)
  Injury, poisoning, procedural complications TEAE, any grade: 20 (20.2) n (%)
  Injury, poisoning, procedural complications TEAE, grade ≥3: 2 (2.0) n (%)
  Investigations TEAE, any grade: 66 (66.7) n (%)
  Investigations TEAE, grade ≥3: 23 (23.2) n (%)
  Lipase increased TEAE, any grade: 15 (15.2) n (%)
  Lipase increased TEAE, grade ≥3: 10 (10.1) n (%)
  Metabolism and nutrition disorders TEAE, any grade: 71 (71.7) n (%)
  Metabolism and nutrition disorders TEAE, grade ≥3: 26 (26.3) n (%)
  Musculoskeletal and connective tissue disorders TEAE, any grade: 56 (56.6) n (%)
  Musculoskeletal and connective tissue disorders TEAE, grade ≥3: 8 (8.1) n (%)
  Nausea TEAE, any grade: 49 (49.5) n (%)
  Nausea TEAE, grade ≥3: 7 (7.1) n (%)
  Nausea TRAE, any grade: 38 (38.4) n (%)
  Nausea TRAE, grade ≥3: 5 (5.1) n (%)
  Neoplasms benign, malignant, unspecified TEAE, any grade: 10 (10.1) n (%)
  Neoplasms benign, malignant, unspecified TEAE, grade ≥3: 8 (8.1) n (%)
  Nervous system disorders TEAE, any grade: 50 (50.5) n (%)
  Nervous system disorders TEAE, grade ≥3: 5 (5.1) n (%)
  PPE syndrome TEAE, any grade: 23 (23.2) n (%)
  PPE syndrome TEAE, grade ≥3: 4 (4.0) n (%)
  PPE syndrome TRAE, any grade: 22 (22.2) n (%)
  PPE syndrome TRAE, grade ≥3: 4 (4.0) n (%)
  Pain in extremity TEAE, any grade: 15 (15.2) n (%)
  Pain in extremity TEAE, grade ≥3: 2 (2.0) n (%)
  Proteinuria TEAE, any grade: 11 (11.1) n (%)
  Proteinuria TEAE, grade ≥3: 0 n (%)
  Proteinuria TRAE, any grade: 9 (9.1) n (%)
  Proteinuria TRAE, grade ≥3: 0 n (%)
  Psychiatric disorders TEAE, any grade: 25 (25.3) n (%)
  Psychiatric disorders TEAE, grade ≥3: 1 (1.0) n (%)
  Rash TEAE, any grade: 12 (12.1) n (%)
  Rash TEAE, grade ≥3: 0 n (%)
  Rash TRAE, any grade: 11 (11.1) n (%)
  Rash TRAE, grade ≥3: 0 n (%)
  Renal and urinary disorders TEAE, any grade: 23 (23.2) n (%)
  Renal and urinary disorders TEAE, grade ≥3: 1 (1.0) n (%)
  Respiratory, thoracic and mediastinal disorders TEAE, any grade: 65 (65.7) n (%)
  Respiratory, thoracic and mediastinal disorders TEAE, grade ≥3: 14 (14.1) n (%)
  Serious TEAE: 49 (49.5) n (%)
  Serious TRAE: 22 (22.2) n (%)
  Skin and subcutaneous tissue disorders TEAE, any grade: 55 (55.6) n (%)
  Skin and subcutaneous tissue disorders TEAE, grade ≥3: 6 (6.1) n (%)
  Stomatitis TEAE, any grade: 14 (14.1) n (%)
  Stomatitis TEAE, grade ≥3: 1 (1.0) n (%)
  Stomatitis TRAE, any grade: 14 (14.1) n (%)
  Stomatitis TRAE, grade ≥3: 1 (1.0) n (%)
  TEAE grade ≥3: 80 (80.8) n (%)
  TEAE leading to death: 10 (10.1) n (%)
  TEAE leading to discontinuation: 24 (24.2) n (%)
  TEAE leading to treatment modification: 74 (74.7) n (%)
  TRAE grade ≥3: 61 (61.6) n (%)
  TRAE leading to death: 1 (1.0) n (%)
  TRAE leading to discontinuation: 17 (17.2) n (%)
  TRAE leading to treatment modification: 66 (66.7) n (%)
  UTI TEAE, any grade: 14 (14.1) n (%)
  UTI TEAE, grade ≥3: 3 (3.0) n (%)
  Vascular disorders TEAE, any grade: 61 (61.6) n (%)
  Vascular disorders TEAE, grade ≥3: 32 (32.3) n (%)
  Vomiting TEAE, any grade: 38 (38.4) n (%)
  Vomiting TEAE, grade ≥3: 10 (10.1) n (%)
  Vomiting TRAE, any grade: 31 (31.3) n (%)
  Vomiting TRAE, grade ≥3: 5 (5.1) n (%)
  Weight decreased TEAE, any grade: 28 (28.3) n (%)
  Weight decreased TEAE, grade ≥3: 3 (3.0) n (%)
  Weight decreased TRAE, any grade: 18 (18.2) n (%)
  Weight decreased TRAE, grade ≥3: 2 (2.0) n (%)
Overall
  ALT increased TEAE, any grade: 46 (23.8) n (%)
  ALT increased TEAE, grade ≥3: 5 (2.6) n (%)
  ALT increased TRAE, any grade: 35 (18.1) n (%)
  ALT increased TRAE, grade ≥3: 3 (1.6) n (%)
  AST increased TEAE, any grade: 47 (24.4) n (%)
  AST increased TEAE, grade ≥3: 4 (2.1) n (%)
